Experimental findings from patent US9682928B2 (NeuroPro Therapeutics, Inc., priority 2009, dated 2017) are described below.

This assay has as its system rats. The experiment in a line: Fear potentiated startle (FPS) test in rats. In kind it is in vivo, rat. The note with it: i.v.; furosemide 100 mg/kg, bumetanide 70 mg/kg. The protocol:
FPS is a commonly used assessment of therapeutic value of anxiolytic compounds in the rat. Rats received a 30 min period of habituation to the FPS apparatus. 24-hr later baseline startle amplitudes were collected. The rats will be divided into two matched groups based on baseline startle amplitudes. Following baseline startle amplitude collection 20 light/shock pairings were delivered on 2 sessions over 2 consecutive days (i.e., 10 light/shock pairings per day). On the final day, one group of rats received an injection (i.v.) of a bumetanide analog and the other group received vehicle only. Immediately following injections, startle amplitudes were assessed during startle alone trials and startle plus fear (light followed by startle) trials. Fear potentiated startle (light+startle amplitudes minus startle alone amplitudes) was compared between the treatment groups.
Animals were trained and tested in four identical stabilimeter devices (Med-Associates). Briefly, each rat was placed in a small Plexiglas cylinder. The floor of each stabilimeter consists of four 6-mm-diameter stainless steel bars spaced 18 mm apart through which shock can be delivered. Cylinder movements result in displacement of an accelerometer where the resultant voltage is proportional to the velocity of the cage displacement. Startle amplitude is defined as the maximum accelerometer voltage that occurs during the first 0.25 sec after the startle stimulus is delivered. The analog output of the accelerometer is amplified, digitized on a scale of 0-4096 units and stored on a microcomputer. Each stabilimeter is enclosed in a ventilated, light-, and sound-attenuating box. All sound level measurements were made with a Precision Sound Level Meter. The noise of a ventilating fan attached to a sidewall of each wooden box produces an overall background noise level of 64 dB. The startle stimulus is a 50 ms burst of white noise (5 ms rise-decay time) generated by a white noise generator. The visual conditioned stimulus used was illumination of a light bulb adjacent to the white noise source. The unconditioned stimulus was a 0.6 mA foot shock with duration of 0.5 sec, generated by four constant-current shockers located outside the chamber. The presentation and sequencing of all stimuli were under the control of the microcomputer.
FPS procedures consisted of 5 days of testing; during days 1 and 2 baseline startle responses were collected, days 3 and 4 light/shock pairings were delivered, day 5-testing for fear potentiated startle was conducted.
Matching. On the first two days all rats were placed in the Plexiglas cylinders and 3 min later presented with 30 startle stimuli at a 30 sec interstimulus interval. An intensity of 105 dB was used. […]

For the compound `CCCCNc1cc(C(=O)O)cc(S(N)(=O)=O)c1Oc1ccccc1` [Bumetanide, reference compound], the “Difference score on the test day vs vehicle alone” value was “statistically significantly lower difference score” and the “Difference score one week after treatment vs vehicle alone” value is on record as “higher difference score”.
